According to publication PMC4165891, “A Cell-Based High-Throughput Screen for Novel Chemical Inducers of Fetal Hemoglobin for Treatment of Hemoglobinopathies” (PLoS ONE, 2014):

Columns and labels:
[1] = system: γ-globin promoter-firefly luciferase; experiment: γ-globin promoter-firefly luciferase induction in CID-dependent dual luc β-YAC BMCs (HTS and dose-response reconfirmation); assay type: cell-based, mouse; conditions: for responsiveness of dual luc β-YAC BMCs to known γ-globin inducers: data not shown; for fold induction of firefly luciferase by positive control: 2 mM, 24 hours, over DMSO treated controls, primary HTS plates
Protocol: For HTS experiments, the dual luc β-YAC BMCs were seeded into 384-well plates (Greiner Bio-One, Monroe, NC) at a density of 10,000 cells/30 µl/well by Wellmate bulk dispenser (ThermoScientific Inc., Waltham, MA) in complete media containing the CID, CL-COB-II-293 (synthesized by the University of Kansas COBRE CCET Core C Synthesis Lab, commonly called AP20187). The CID-dependent dual luc β-YAC BMCs were responsive to known γ-globin inducers including valproic acid, sodium butyrate, valeric acid and hydroxyurea (data not shown). Sodium butyrate (2 mM) was selected as the positive control for screening, as a consistent 5–6 fold increase in firefly luciferase activity was obtained in four independent experiments with four different passage numbers. Since both the cell viability and luciferase induction was unaffected at DMSO concentrations below 0.5%, the compound libraries were screened at 10 µM concentration in 0.35% DMSO. Compounds were transferred acoustically using a Labcyte Echo 550 dispenser (Labcyte Inc., Sunnyvale, CA). Based on previous optimizations, 10,000 cells/well in IMDM containing CL-COB-II-293 (100 nM) were added to the wells of 384-well assay plates. The negative (n = 16, DMSO) and positive (n = 16, sodium butyrate, 2 mM) controls were added to the first two columns of each plate to assure uniformity across plates and screening batches. The cells were exposed to compounds for 24 hours at 37°C, 5% CO2 in a 95% humidified incubator. After 24 hours incubation, Steady Glo luciferase detection reagent (Promega, Madison, WI) was used for cell lysis and generation of a luminescent signal, proportional to γ-globin promoter driven firefly luciferase reporter expression. The luminescence intensities were read 30 minutes later on a Tecan Safire2 microplate reader (Tecan, Männedorf, Switzerland). The luminescence values were used for calculating fold-induction of luciferase over DMSO treated controls. The controls were used to calculate a Z′ factor value for each plate, a measure of screening assay quality.
The active compounds from the primary screen were cherry-picked from mother plates and retested for firefly luciferase induction in an eight concentration dose-response assay (two fold dilution starting at 30 µM). The fold-induction values from dose-response curves were used for preliminary scaffold analysis and clustering using the Tripos Selector program and analyzed using the Jarvis Patrick routine, using default parameters [The Tripos Associates (Cetara), St. Louis, MO]. From each preliminary cluster, the largest conserved substructure present in at least half of the cluster members was identified.
Some of the primary screen active compounds were repurchased and tested for activity in cell-based assays using the primary screening reporter cells in a ten concentration dose-response. Both firefly luciferase induction (γ-globin promoter activation using the One-Glo luciferase detection system; Promega, Madison, WI), and Renilla luciferase induction (β-globin induction the using Renilla-Glo Luciferase detection system; Promega, Madison, WI), were measured for specificity of compound activity. The cytotoxicity of the compounds was measured after 24 hours in the same cells using Cell-Titer Glo reagent (Promega, Madison, WI). The compounds were also tested in a biochemical screen for any inhibition to purified firefly luciferase enzyme (15 nM).

[2] = system: HbF-positive cells; experiment: FACS analysis of HbF-positive cells in human primary erythroid progenitors; assay type: cell-based; conditions: 48 hours
Text: (§1) Human erythroid progenitors were generated in vitro from adult CD34^+ stem cells (STEMCELL Technologies, Inc., Vancouver, Canada) using a 2-stage culture system that achieves terminal erythroid differentiation. Standard, but variant, methods for quantitative reverse transcription-PCR (qRT-PCR) and flow-activated cell sorting (FACS) were employed for the two cell types as detailed in File S1. ELISA was used to measure HbF in CID-dependent wild-type β-YAC BMCs as described in the supplement.
Human primary erythroid cell culture. Human erythroid progenitors were generated in vitro from adult CD34^+ stem cells (STEMCELL Technologies, Inc., Vancouver, Canada) using a 2-stage culture system that achieves terminal erythroid differentiation. Briefly, CD34^+ stem cells (500,000) were grown in First medium consisting of IMDM containing human AB serum, Interleukin-3 (IL-3,10 ng/ml), stem cell factor (SCF, 10 ng/ml) and erythropoietin (EPO, 2 IU/ml). On day 7 the erythroblasts were placed in Second medium consisting of 2 IU/mL erythropoietin for the duration of culture. […] Cell viability was monitored by trypan blue (0.4%) exclusion. […]
Flow-activated cell sorting (FACS). […] The labeled cells were analyzed using a Becton-Dickson LSR-II flow cytometer (BD Biosciences, San Jose, CA). […]

[3] = system: human γ-globin gene expression; experiment: qRT-PCR of γ-globin mRNA in CID-dependent wild-type β-YAC BMCs; assay type: cell-based, mouse; conditions: 48 hours; NaB 2 mM; #7 50 µM; #42 15 µM; #87 100 µM; #125 30 µM; #157 100 µM; #208 25 µM
Text: as §1
Quantitative reverse transcription-PCR (qRT-PCR). In each experiment, treated and non-treated samples were analyzed in duplicate, 48 hours post-treatment, using SYBR Green dye in a CFX96 instrument (Bio-Rad, Hercules, CA). Expression of γ- and β-globin was calculated using relative quantification, as previously described, [7], using samples from β-YAC transgenic mice as controls. PCR primer sequences utilized for expression studies were: Hu-γ1, 5’-[…]-3’; Hu-γ2, 5’-[…]-3’; β-globin FWD, 5’-[…]-3’; β-globin REV, 5’-[…]-3’; Mo-Gapdh FWD, 5’-[…]-3’; Mo-Gapdh REV, 5’-[…]-3’; Mo-α-globin FWD, 5’-[…]-3’; Mo-α-globin REV, 5’-[…]-3’. Murine Gapdh and α-globin gene expression were used as internal controls for the human β-like globin gene expression. Mean and standard error of the mean were calculated. The Student’s t-test was used to determine statistical significance at P < 0.05 and P < 0.01.

[4] = system: γ-globin to β-globin (γ/β) ratio; experiment: qRT-PCR γ-globin/β-globin mRNA ratio in human primary erythroid progenitors; assay type: cell-based; conditions: added day 8 for 48 hours; NaB 2 mM; #7 50 µM; #42 15 µM; #87 100 µM; #208 25 µM (Figure 6 legend)
Text: as §1
Human primary erythroid cell culture. Human erythroid progenitors were generated in vitro from adult CD34^+ stem cells (STEMCELL Technologies, Inc., Vancouver, Canada) using a 2-stage culture system that achieves terminal erythroid differentiation. […] Cell viability was monitored by trypan blue (0.4%) exclusion. […]
Quantitative reverse transcription-PCR (qRT-PCR). The mRNA levels of γ-globin, β-globin, and glyceraldehyde-3-phosphate dehydrogenase (GAPDH) were measured as previously published, [10]. […] The γ-globin, β-globin, and GAPDH mRNA levels were quantitated by Sybergreen qPCR using an iCycler iQ instrument (BioRad, Hercules, CA); standard curves were generated using a Topo7-based plasmid carrying the γ-globin, β-globin, or GAPDH cDNAs (Topo7-γ-globin, Topo7-β-globin, or Topo7-GAPDH, respectively).

[5] = system: γ-globin (HbF)-expressing F cells; experiment: FACS analysis of HbF (F cells) in CID-dependent wild-type β-YAC BMCs; assay type: cell-based, mouse; conditions: 48 hours; NaB 2 mM; #7 50 µM; #42 15 µM; #87 100 µM; #125 30 µM; #157 100 µM; #208 25 µM; untreated 0.7%
Text: as §1
Flow-activated cell sorting (FACS). Detection of HbF in CID-dependent wild-type β-YAC BMCs was performed by flow cytometric analysis. Briefly, 3 x 10^6 cells were cultured for 48 hours with or without treatment. Cells were washed in PBS and fixed in 1 ml 4% fresh paraformaldehyde (Sigma Aldrich, Saint Louis, MO). The cells were centrifuged, the supernatant discarded, and the pellets were resuspended in 1 ml ice cold acetone:methanol (4:1) for 1 minute. Cells were washed twice in ice-cold PBS/0.1% BSA and resuspended in 100 μl PBS/0.1% BSA/0.01% Tween 20 (PBT). One μg sheep anti-human HbF FITC-conjugated antibody (A80-136F, Bethyl Laboratories, Montgomery, TX) in 100 μl PBT was added to the cell suspension and incubated for 40 minutes at room temperature. […] Cells were analyzed using a BD LSRII Flow Cytometer (BD Biosciences, San Jose, CA) with a 530/30 nm (FITC/GFP) emission filter . […]

Row | SMILES | responsiveness of dual luc β-YAC BMCs to known γ-globin inducers [1] | fold increase in % HbF-positive cells [2] [fold] | fold induction of firefly luciferase by positive control [1] | fold induction of firefly luciferase by positive control ([1]; listed as sodium butyrate) [fold] | γ-globin expression fold induction (qPCR) [3] [fold] | γ-globin to β-globin (γ/β) mRNA ratio fold increase compared to DMSO [4] [fold] | % F cells (FACS, gate P3) [5] [%]
1 | NC(=O)NO [hydroxyurea] | responsive |  |  |  |  |  | 
2 | CCCC(CCC)C(=O)O [valproic acid] | responsive |  |  |  |  |  | 
3 | CCCC(=O)[O-].[Na+] [Sodium butyrate] | responsive | 7 | 5–6 fold | 6.3±0.7 | 9.9 | 1.8 | 15.9
4 | CCCCC(=O)O [valeric acid] | responsive |  |  |  |  |  | 
